Data: US20230085307A1, “PYRIDAZINONE COMPOUND AND HERBICIDE” (NISSAN CHEMICAL CORPORATION, priority 2019, published 2023)

Key:
rice flat sedge = assay: Test Example 3: herbicidal effect by foliage application, Wagner pot (Table 18, symbol E); assay type: in vivo, rice flat sedge (Cyperus iria); details: 320 g/ha
Procedure, shortened: (§1)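 Plants were sown in alluvial soil held under 0.1–0.5 cm standing water and grown 14 days in a greenhouse at 25–30 °C. An emulsifiable formulation, water-diluted to the set dose, was then sprayed onto the foliage, and effects were scored three weeks later using previously defined criteria.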

blackgrass [1] = assay: Test Example 4: herbicidal effect by soil treatment (Table 19, symbol J); assay type: in vivo, blackgrass (Alopecurus myosuroides); details: amount of applied herbicide 320 g/ha
Procedure, shortened: (§2)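 Herbicidal effect was rated 3 weeks after treatment, using the scoring criteria of an earlier test. The compound, formulated as an emulsion and diluted in water to a set herbicide amount, had been sprayed uniformly on soil over freshly sown seeds. Growth took place in a greenhouse at 25° C. to 30° C.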

chickweed [2] = assay: Test Example 5: herbicidal effect by foliage application, plastic box (Table 20, symbol P); assay type: in vivo, common chickweed (Stellaria media); details: amount of applied herbicide 320 g/ha; foliage application after 14-day growth; evaluated three weeks after application
Procedure, shortened: (§3)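 Foliar spray test: emulsion formulation diluted in water to a set application rate, sprayed onto 14-day-old plants raised in diluvial soil at 25° C to 30° C under glass. Both herbicidal effect and crop effect rated visually three weeks later.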

lambsquarters [3] = assay: Test Example 4: herbicidal effect by soil treatment (Table 19, symbol O); assay type: in vivo, lambsquarters (Chenopodium album); details: amount of applied herbicide 320 g/ha
Procedure, shortened: as §2

wild oat [4] = assay: Test Example 5: herbicidal effect by foliage application, plastic box (Table 20, symbol I); assay type: in vivo, wild oat (Avena fatua); details: amount of applied herbicide 320 g/ha; foliage application after 14-day growth; evaluated three weeks after application
Procedure, shortened: as §3

green foxtail [5] = assay: Test Example 4: herbicidal effect by soil treatment (Table 19, symbol G); assay type: in vivo, green foxtail (Setaria viridis); details: amount of applied herbicide 320 g/ha
Procedure, shortened: as §2

velvetleaf [6] = assay: Test Example 4: herbicidal effect by soil treatment (Table 19, symbol M); assay type: in vivo, velvetleaf (Abutilon theophrasti); details: amount of applied herbicide 320 g/ha
Procedure, shortened: as §2

green foxtail [7] = assay: Test Example 5: herbicidal effect by foliage application, plastic box (Table 20, symbol G); assay type: in vivo, green foxtail (Setaria viridis); details: amount of applied herbicide 320 g/ha; foliage application after 14-day growth; evaluated three weeks after application
Procedure, shortened: as §3

southern crabgrass [8] = assay: Test Example 5: herbicidal effect by foliage application, plastic box (Table 20, symbol F); assay type: in vivo, southern crabgrass (Digitaria ciliaris); details: amount of applied herbicide 320 g/ha; foliage application after 14-day growth; evaluated three weeks after application
Procedure, shortened: as §3

persian speedwell [9] = assay: Test Example 5: herbicidal effect by foliage application, plastic box (Table 20, symbol R); assay type: in vivo, Persian speedwell (Veronica persica); details: amount of applied herbicide 320 g/ha; foliage application after 14-day growth; evaluated three weeks after application
Procedure, shortened: as §3

windgrass [10] = assay: Test Example 4: herbicidal effect by soil treatment (Table 19, symbol L); assay type: in vivo, windgrass (Apera spica-venti); details: amount of applied herbicide 320 g/ha
Procedure, shortened: as §2

persian speedwell [11] = assay: Test Example 4: herbicidal effect by soil treatment (Table 19, symbol R); assay type: in vivo, Persian speedwell (Veronica persica); details: amount of applied herbicide 320 g/ha
Procedure, shortened: as §2

windgrass [12] = assay: Test Example 5: herbicidal effect by foliage application, plastic box (Table 20, symbol L); assay type: in vivo, windgrass (Apera spica-venti); details: amount of applied herbicide 320 g/ha; foliage application after 14-day growth; evaluated three weeks after application
Procedure, shortened: as §3

chickweed [13] = assay: Test Example 4: herbicidal effect by soil treatment (Table 19, symbol P); assay type: in vivo, common chickweed (Stellaria media); details: amount of applied herbicide 320 g/ha
Procedure, shortened: as §2

redroot pigweed [14] = assay: Test Example 4: herbicidal effect by soil treatment (Table 19, symbol N); assay type: in vivo, redroot pigweed (Amaranthus retroflexus); details: amount of applied herbicide 320 g/ha
Procedure, shortened: as §2

velvetleaf [15] = assay: Test Example 5: herbicidal effect by foliage application, plastic box (Table 20, symbol M); assay type: in vivo, velvetleaf (Abutilon theophrasti); details: amount of applied herbicide 320 g/ha; foliage application after 14-day growth; evaluated three weeks after application
Procedure, shortened: as §3

Chinese sprangletop = assay: Test Example 3: herbicidal effect by foliage application, Wagner pot (Table 18, symbol D); assay type: in vivo, chinese sprangletop (Leptochloa chinensis); details: 320 g/ha
Procedure, shortened: as §1

southern crabgrass [16] = assay: Test Example 4: herbicidal effect by soil treatment (Table 19, symbol F); assay type: in vivo, southern crabgrass (Digitaria ciliaris); details: amount of applied herbicide 320 g/ha
Procedure, shortened: as §2

blackgrass [17] = assay: Test Example 5: herbicidal effect by foliage application, plastic box (Table 20, symbol J); assay type: in vivo, blackgrass (Alopecurus myosuroides); details: amount of applied herbicide 320 g/ha; foliage application after 14-day growth; evaluated three weeks after application
Procedure, shortened: as §3

barnyard grass [18] = assay: Test Example 3: herbicidal effect by foliage application, Wagner pot (Table 18, symbol H); assay type: in vivo, barnyard grass (Echinochloa crus-galli); details: 320 g/ha
Procedure, shortened: as §1

Italian ryegrass [19] = assay: Test Example 4: herbicidal effect by soil treatment (Table 19, symbol K); assay type: in vivo, Italian ryegrass (Lolium multiflorum); details: amount of applied herbicide 320 g/ha
Procedure, shortened: as §2

barnyard grass [20] = assay: Test Example 5: herbicidal effect by foliage application, plastic box (Table 20, symbol H); assay type: in vivo, barnyard grass (Echinochloa crus-galli); details: amount of applied herbicide 320 g/ha; foliage application after 14-day growth; evaluated three weeks after application
Procedure, shortened: as §3

lambsquarters [21] = assay: Test Example 5: herbicidal effect by foliage application, plastic box (Table 20, symbol O); assay type: in vivo, lambsquarters (Chenopodium album); details: amount of applied herbicide 320 g/ha; foliage application after 14-day growth; evaluated three weeks after application
Procedure, shortened: as §3

barnyard grass [22] = assay: Test Example 4: herbicidal effect by soil treatment (Table 19, symbol H); assay type: in vivo, barnyard grass (Echinochloa crus-galli); details: amount of applied herbicide 320 g/ha
Procedure, shortened: as §2

wild oat [23] = assay: Test Example 4: herbicidal effect by soil treatment (Table 19, symbol I); assay type: in vivo, wild oat (Avena fatua); details: amount of applied herbicide 320 g/ha
Procedure, shortened: as §2

redroot pigweed [24] = assay: Test Example 5: herbicidal effect by foliage application, plastic box (Table 20, symbol N); assay type: in vivo, redroot pigweed (Amaranthus retroflexus); details: amount of applied herbicide 320 g/ha; foliage application after 14-day growth; evaluated three weeks after application
Procedure, shortened: as §3

Italian ryegrass [25] = assay: Test Example 5: herbicidal effect by foliage application, plastic box (Table 20, symbol K); assay type: in vivo, Italian ryegrass (Lolium multiflorum); details: amount of applied herbicide 320 g/ha; foliage application after 14-day growth; evaluated three weeks after application
Procedure, shortened: as §3

| Structure (SMILES) | herbicidal effect on rice flat sedge (E) (rice flat sedge) | Herbicidal effect by soil treatment, J: blackgrass (blackgrass [1]) | Herbicidal effect by foliage application, P: chickweed (chickweed [2]) | Herbicidal effect by soil treatment, O: lambsquarters (lambsquarters [3]) | Herbicidal effect by foliage application, I: wild oat (wild oat [4]) | Herbicidal effect by soil treatment, G: green foxtail (green foxtail [5]) | Herbicidal effect by soil treatment, M: velvetleaf (velvetleaf [6]) | Herbicidal effect by foliage application, G: green foxtail (green foxtail [7]) | Herbicidal effect by foliage application, F: southern crabgrass (southern crabgrass [8]) | Herbicidal effect by foliage application, R: persian speedwell (persian speedwell [9]) | Herbicidal effect by soil treatment, L: windgrass (windgrass [10]) | Herbicidal effect by soil treatment, R: persian speedwell (persian speedwell [11]) | Herbicidal effect by foliage application, L: windgrass (windgrass [12]) | Herbicidal effect by soil treatment, P: chickweed (chickweed [13]) | Herbicidal effect by soil treatment, N: redroot pigweed (redroot pigweed [14]) | Herbicidal effect by foliage application, M: velvetleaf (velvetleaf [15]) | herbicidal effect on Chinese sprangletop (D) (Chinese sprangletop) | Herbicidal effect by soil treatment, F: southern crabgrass (southern crabgrass [16]) | Herbicidal effect by foliage application, J: blackgrass (blackgrass [17]) | herbicidal effect on barnyard grass (H) (barnyard grass [18]) | further results |
| --- | --- | --- | --- | --- | --- | --- | --- | --- | --- | --- | --- | --- | --- | --- | --- | --- | --- | --- | --- | --- | --- |
| Cc1nn(C)c(=O)c(-c2c(-c3ccc(OC(F)(F)F)cc3)sc3c(Cl)cccc23)c1O [4-078] | 3 (Herbicidal rate of 40% or more and less than 70%) | 0 (Herbicidal rate of 5% or less (almost no effect)) | 5 (Herbicidal rate of 90% or more (almost completely withered)) | 0 (Herbicidal rate of 5% or less (almost no effect)) | 0 (Herbicidal rate of 5% or less (almost no effect)) | 0 (Herbicidal rate of 5% or less (almost no effect)) | 0 (Herbicidal rate of 5% or less (almost no effect)) | 0 (Herbicidal rate of 5% or less (almost no effect)) | 0 (Herbicidal rate of 5% or less (almost no effect)) | 5 (Herbicidal rate of 90% or more (almost completely withered)) | 0 (Herbicidal rate of 5% or less (almost no effect)) | 4 (Herbicidal rate of 70% or more and less than 90%) | 5 (Herbicidal rate of 90% or more (almost completely withered)) | 3 (Herbicidal rate of 40% or more and less than 70%) | 2 (Herbicidal rate of 20% or more and less than 40%) | 3 (Herbicidal rate of 40% or more and less than 70%) | 2 (Herbicidal rate of 20% or more and less than 40%) | 0 (Herbicidal rate of 5% or less (almost no effect)) | 0 (Herbicidal rate of 5% or less (almost no effect)) | 3 (Herbicidal rate of 40% or more and less than 70%) | Herbicidal effect by soil treatment, K: Italian ryegrass (Italian ryegrass [19]): 0 (Herbicidal rate of 5% or less (almost no effect)); Herbicidal effect by foliage application, H: barnyard grass (barnyard grass [20]): 0 (Herbicidal rate of 5% or less (almost no effect)); Herbicidal effect by foliage application, O: lambsquarters (lambsquarters [21]): 3 (Herbicidal rate of 40% or more and less than 70%); Herbicidal effect by soil treatment, H: barnyard grass (barnyard grass [22]): 0 (Herbicidal rate of 5% or less (almost no effect)); Herbicidal effect by soil treatment, I: wild oat (wild oat [23]): 0 (Herbicidal rate of 5% or less (almost no effect)); Herbicidal effect by foliage application, N: redroot pigweed (redroot pigweed [24]): 5 (Herbicidal rate of 90% or more (almost completely withered)); Herbicidal effect by foliage application, K: Italian ryegrass (Italian ryegrass [25]): 0 (Herbicidal rate of 5% or less (almost no effect)) |
| Cc1nn(C)c(=O)c(-c2c(-c3ccc(SC(C)C)cc3)sc3c(Cl)cccc23)c1O [4-096] | 3 (Herbicidal rate of 40% or more and less than 70%) | 0 (Herbicidal rate of 5% or less (almost no effect)) | 5 (Herbicidal rate of 90% or more (almost completely withered)) | 3 (Herbicidal rate of 40% or more and less than 70%) | 2 (Herbicidal rate of 20% or more and less than 40%) | 0 (Herbicidal rate of 5% or less (almost no effect)) | 0 (Herbicidal rate of 5% or less (almost no effect)) | 3 (Herbicidal rate of 40% or more and less than 70%) | 0 (Herbicidal rate of 5% or less (almost no effect)) | 5 (Herbicidal rate of 90% or more (almost completely withered)) | 0 (Herbicidal rate of 5% or less (almost no effect)) | 4 (Herbicidal rate of 70% or more and less than 90%) | 3 (Herbicidal rate of 40% or more and less than 70%) | 3 (Herbicidal rate of 40% or more and less than 70%) | 5 (Herbicidal rate of 90% or more (almost completely withered)) | 3 (Herbicidal rate of 40% or more and less than 70%) | 3 (Herbicidal rate of 40% or more and less than 70%) | 0 (Herbicidal rate of 5% or less (almost no effect)) | 3 (Herbicidal rate of 40% or more and less than 70%) | 5 (Herbicidal rate of 90% or more (almost completely withered)) | Herbicidal effect by soil treatment, K: Italian ryegrass (Italian ryegrass [19]): 0 (Herbicidal rate of 5% or less (almost no effect)); Herbicidal effect by foliage application, H: barnyard grass (barnyard grass [20]): 4 (Herbicidal rate of 70% or more and less than 90%); Herbicidal effect by foliage application, O: lambsquarters (lambsquarters [21]): 4 (Herbicidal rate of 70% or more and less than 90%); Herbicidal effect by soil treatment, H: barnyard grass (barnyard grass [22]): 0 (Herbicidal rate of 5% or less (almost no effect)); Herbicidal effect by soil treatment, I: wild oat (wild oat [23]): 0 (Herbicidal rate of 5% or less (almost no effect)); Herbicidal effect by foliage application, N: redroot pigweed (redroot pigweed [24]): 5 (Herbicidal rate of 90% or more (almost completely withered)); Herbicidal effect by foliage application, K: Italian ryegrass (Italian ryegrass [25]): 4 (Herbicidal rate of 70% or more and less than 90%) |
